{
  "source": "ChEMBL document CHEMBL1201862",
  "about": "“PubChem BioAssay data set” (2004)",
  "type_in_all_cases": "functional",
  "key": {"[1]": {"target": "Calcium/calmodulin-dependent protein kinase type 1 (Homo sapiens, UniProt Q14012)"}, "[2]": {"target": "Fibroblast growth factor receptor 3 (Homo sapiens, UniProt P22607)", "sequence (P22607 whole entry)": "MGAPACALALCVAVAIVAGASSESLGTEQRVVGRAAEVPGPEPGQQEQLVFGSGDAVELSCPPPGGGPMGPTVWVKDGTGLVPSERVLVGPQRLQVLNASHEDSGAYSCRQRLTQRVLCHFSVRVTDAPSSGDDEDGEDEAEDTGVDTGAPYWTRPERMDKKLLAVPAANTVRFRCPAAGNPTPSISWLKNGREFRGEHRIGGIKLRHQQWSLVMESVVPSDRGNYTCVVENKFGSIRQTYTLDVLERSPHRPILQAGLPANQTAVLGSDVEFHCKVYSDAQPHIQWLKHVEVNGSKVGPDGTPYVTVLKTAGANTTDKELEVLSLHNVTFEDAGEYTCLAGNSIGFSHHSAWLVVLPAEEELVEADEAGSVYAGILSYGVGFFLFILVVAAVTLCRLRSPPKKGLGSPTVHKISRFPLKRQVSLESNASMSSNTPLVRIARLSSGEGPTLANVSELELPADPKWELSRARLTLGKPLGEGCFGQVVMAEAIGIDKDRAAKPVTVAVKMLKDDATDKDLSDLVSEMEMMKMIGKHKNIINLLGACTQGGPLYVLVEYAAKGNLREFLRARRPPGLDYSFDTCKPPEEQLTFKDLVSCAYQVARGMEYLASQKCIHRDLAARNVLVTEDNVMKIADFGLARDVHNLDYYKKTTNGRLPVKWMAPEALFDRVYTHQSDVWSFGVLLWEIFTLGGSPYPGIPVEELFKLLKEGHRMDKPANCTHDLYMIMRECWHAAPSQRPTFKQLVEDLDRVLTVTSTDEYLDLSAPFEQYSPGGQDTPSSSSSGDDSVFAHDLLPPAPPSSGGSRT"}, "[3]": {"target": "Cyclin-dependent kinase 9 (Homo sapiens, UniProt P50750)"}, "[4]": {"target": "LIM domain kinase 1 (Homo sapiens, UniProt P53667)", "assay": "Navigating the Kinome. Panel member name: LIMK1"}, "[5]": {"target": "Casein kinase I isoform delta (Homo sapiens, UniProt P48730)"}, "[6]": {"target": "Death-associated protein kinase 3 (Homo sapiens, UniProt O43293)"}, "[7]": {"target": "Interleukin-1 receptor-associated kinase 1 (Homo sapiens, UniProt P51617)"}, "[8]": {"target": "Protein kinase C delta type (Homo sapiens, UniProt Q05655)"}, "[9]": {"target": "Tyrosine-protein kinase Srms (Homo sapiens, UniProt Q9H3Y6)"}, "[10]": {"target": "Cyclin-dependent kinase 5 (Homo sapiens, UniProt Q00535)"}, "[11]": {"target": "MAP/microtubule affinity-regulating kinase 4 (Homo sapiens, UniProt Q96L34)", "assay": "Navigating the Kinome. Panel member name: MARK4"}, "[12]": {"target": "Leucine-rich repeat serine/threonine-protein kinase 2 (Homo sapiens, UniProt Q5S007)"}, "[13]": {"target": "Platelet-derived growth factor receptor beta (Homo sapiens, UniProt P09619)"}, "[14]": {"target": "MAP/microtubule affinity-regulating kinase 3 (Homo sapiens, UniProt P27448)"}, "[15]": {"target": "Platelet-derived growth factor receptor alpha (Homo sapiens, UniProt P16234)", "assay": "Navigating the Kinome. Panel member name: PDGFRA"}, "[16]": {"target": "Dual specificity mitogen-activated protein kinase kinase 1 (Homo sapiens, UniProt Q02750)", "assay": "Navigating the Kinome. Panel member name: MAP2K1"}, "[17]": {"target": "Casein kinase I isoform gamma-1 (Homo sapiens, UniProt Q9HCP0)"}, "[18]": {"target": "Vascular endothelial growth factor receptor 3 (Homo sapiens, UniProt P35916)"}, "[19]": {"target": "Inhibitor of nuclear factor kappa-B kinase subunit epsilon (Homo sapiens, UniProt Q14164)", "assay": "Navigating the Kinome. Panel member name: IKBKE"}, "[20]": {"target": "Proto-oncogene tyrosine-protein kinase ROS (Homo sapiens, UniProt P08922)"}, "[21]": {"target": "Tyrosine-protein kinase HCK (Homo sapiens, UniProt P08631)", "assay": "Navigating the Kinome. Panel member name: HCK"}, "[22]": {"target": "Tyrosine-protein kinase BTK (Homo sapiens, UniProt Q06187)"}, "[23]": {"target": "Mitogen-activated protein kinase 12 (Homo sapiens, UniProt P53778)", "sequence (P53778 whole entry)": "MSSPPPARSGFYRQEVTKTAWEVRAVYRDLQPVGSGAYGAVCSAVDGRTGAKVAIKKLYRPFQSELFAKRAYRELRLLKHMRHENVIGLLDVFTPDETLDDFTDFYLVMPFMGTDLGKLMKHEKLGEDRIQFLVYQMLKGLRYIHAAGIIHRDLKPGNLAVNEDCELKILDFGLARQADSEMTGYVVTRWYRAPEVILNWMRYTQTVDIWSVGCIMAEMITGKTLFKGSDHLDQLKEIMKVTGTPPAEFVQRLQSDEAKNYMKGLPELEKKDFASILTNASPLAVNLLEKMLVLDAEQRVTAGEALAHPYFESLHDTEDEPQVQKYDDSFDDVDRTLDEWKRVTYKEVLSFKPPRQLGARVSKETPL"}, "[24]": {"target": "Serine/threonine-protein kinase PAK 4 (Homo sapiens, UniProt O96013)"}, "[25]": {"target": "Mitogen-activated protein kinase 10 (Homo sapiens, UniProt P53779)", "assay": "Navigating the Kinome. Panel member name: MAPK10"}, "[26]": {"target": "Tyrosine-protein kinase Lck (Homo sapiens, UniProt P06239)", "sequence (P06239 whole entry)": "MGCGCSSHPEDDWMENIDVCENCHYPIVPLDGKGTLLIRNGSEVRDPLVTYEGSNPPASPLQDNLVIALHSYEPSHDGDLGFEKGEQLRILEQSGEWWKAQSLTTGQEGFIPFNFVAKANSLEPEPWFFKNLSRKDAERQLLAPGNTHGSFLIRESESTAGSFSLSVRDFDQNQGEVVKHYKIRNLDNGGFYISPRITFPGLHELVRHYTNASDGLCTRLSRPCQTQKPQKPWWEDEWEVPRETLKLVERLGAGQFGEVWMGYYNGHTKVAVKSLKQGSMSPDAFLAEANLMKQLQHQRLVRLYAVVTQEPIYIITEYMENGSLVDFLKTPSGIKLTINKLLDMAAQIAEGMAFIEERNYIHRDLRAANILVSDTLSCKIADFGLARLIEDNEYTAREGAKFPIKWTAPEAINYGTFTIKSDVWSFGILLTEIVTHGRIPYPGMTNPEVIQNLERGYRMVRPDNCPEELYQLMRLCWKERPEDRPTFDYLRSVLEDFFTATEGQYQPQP"}, "[27]": {"target": "Cyclin-dependent kinase 1 (Homo sapiens, UniProt P06493)"}, "[28]": {"target": "Misshapen-like kinase 1 (Homo sapiens, UniProt Q8N4C8)", "sequence (Q8N4C8 whole entry)": "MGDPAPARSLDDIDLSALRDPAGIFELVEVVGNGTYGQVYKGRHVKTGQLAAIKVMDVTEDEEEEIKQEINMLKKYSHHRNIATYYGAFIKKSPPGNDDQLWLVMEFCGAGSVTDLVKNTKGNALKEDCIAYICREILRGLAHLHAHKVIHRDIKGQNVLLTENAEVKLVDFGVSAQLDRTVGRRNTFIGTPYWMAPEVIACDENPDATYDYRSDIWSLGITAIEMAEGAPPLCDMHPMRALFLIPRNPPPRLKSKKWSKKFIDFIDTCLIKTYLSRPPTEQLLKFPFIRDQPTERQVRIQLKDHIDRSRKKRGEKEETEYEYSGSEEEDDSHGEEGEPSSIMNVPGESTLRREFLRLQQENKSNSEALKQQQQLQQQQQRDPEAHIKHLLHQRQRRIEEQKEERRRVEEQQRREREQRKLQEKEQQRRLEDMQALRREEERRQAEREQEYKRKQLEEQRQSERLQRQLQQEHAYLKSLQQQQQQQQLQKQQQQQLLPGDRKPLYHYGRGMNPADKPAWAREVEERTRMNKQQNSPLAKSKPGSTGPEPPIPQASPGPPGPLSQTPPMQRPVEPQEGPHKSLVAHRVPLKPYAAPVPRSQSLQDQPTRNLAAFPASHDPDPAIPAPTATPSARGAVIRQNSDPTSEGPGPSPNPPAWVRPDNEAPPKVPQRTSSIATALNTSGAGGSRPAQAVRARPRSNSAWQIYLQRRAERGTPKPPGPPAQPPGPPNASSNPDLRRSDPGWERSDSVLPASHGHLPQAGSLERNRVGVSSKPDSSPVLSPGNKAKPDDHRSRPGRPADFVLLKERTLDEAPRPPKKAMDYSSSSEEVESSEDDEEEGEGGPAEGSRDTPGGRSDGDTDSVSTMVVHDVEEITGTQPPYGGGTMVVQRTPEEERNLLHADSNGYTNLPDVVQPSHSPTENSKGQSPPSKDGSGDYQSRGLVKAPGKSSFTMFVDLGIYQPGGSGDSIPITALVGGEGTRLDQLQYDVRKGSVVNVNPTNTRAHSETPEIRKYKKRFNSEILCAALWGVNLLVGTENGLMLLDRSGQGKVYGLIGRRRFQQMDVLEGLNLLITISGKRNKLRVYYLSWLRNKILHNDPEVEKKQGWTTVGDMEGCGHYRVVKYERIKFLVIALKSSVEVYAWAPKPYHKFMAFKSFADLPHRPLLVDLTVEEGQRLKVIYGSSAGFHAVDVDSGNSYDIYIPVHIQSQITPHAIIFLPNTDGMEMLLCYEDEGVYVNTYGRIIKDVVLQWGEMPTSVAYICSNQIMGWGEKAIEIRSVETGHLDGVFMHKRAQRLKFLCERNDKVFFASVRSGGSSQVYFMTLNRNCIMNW"}, "[29]": {"target": "MAP kinase-activated protein kinase 5 (Homo sapiens, UniProt Q8IW41)"}, "[30]": {"target": "Protein kinase C gamma type (Homo sapiens, UniProt P05129)"}, "[31]": {"target": "Dual specificity tyrosine-phosphorylation-regulated kinase 3 (Homo sapiens, UniProt O43781)"}, "[32]": {"target": "Fibroblast growth factor receptor 1 (Homo sapiens, UniProt P11362)"}, "[33]": {"target": "Tyrosine-protein kinase Fer (Homo sapiens, UniProt P16591)", "sequence (P16591 whole entry)": "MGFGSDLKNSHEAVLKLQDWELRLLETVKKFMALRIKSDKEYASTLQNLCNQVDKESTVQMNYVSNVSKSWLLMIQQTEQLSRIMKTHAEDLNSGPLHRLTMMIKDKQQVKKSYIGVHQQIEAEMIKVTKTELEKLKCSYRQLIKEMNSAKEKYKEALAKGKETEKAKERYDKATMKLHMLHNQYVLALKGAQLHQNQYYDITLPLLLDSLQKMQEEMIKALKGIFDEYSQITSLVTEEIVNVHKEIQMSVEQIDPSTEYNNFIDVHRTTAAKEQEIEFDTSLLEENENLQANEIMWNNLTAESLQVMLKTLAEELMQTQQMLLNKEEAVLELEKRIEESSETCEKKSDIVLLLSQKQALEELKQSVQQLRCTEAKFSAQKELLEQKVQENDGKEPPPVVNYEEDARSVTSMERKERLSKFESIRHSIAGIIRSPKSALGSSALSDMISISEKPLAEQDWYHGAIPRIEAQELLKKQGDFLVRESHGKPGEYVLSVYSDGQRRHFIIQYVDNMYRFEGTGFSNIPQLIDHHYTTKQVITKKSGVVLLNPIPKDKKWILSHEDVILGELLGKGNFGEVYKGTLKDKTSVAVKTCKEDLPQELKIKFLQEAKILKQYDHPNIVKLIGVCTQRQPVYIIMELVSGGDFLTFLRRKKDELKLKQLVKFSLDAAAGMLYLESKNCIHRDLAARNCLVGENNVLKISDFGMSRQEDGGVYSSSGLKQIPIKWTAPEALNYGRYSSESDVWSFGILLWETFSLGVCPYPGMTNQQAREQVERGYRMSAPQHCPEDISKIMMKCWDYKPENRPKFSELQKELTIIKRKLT"}, "[34]": {"target": "Macrophage colony-stimulating factor 1 receptor (Homo sapiens, UniProt P07333)"}, "[35]": {"target": "Dual specificity tyrosine-phosphorylation-regulated kinase 1A (Homo sapiens, UniProt Q13627)"}, "[36]": {"target": "Dual specificity protein kinase CLK4 (Homo sapiens, UniProt Q9HAZ1)"}, "[37]": {"target": "Vascular endothelial growth factor receptor 1 (Homo sapiens, UniProt P17948)"}, "[38]": {"target": "Tyrosine-protein kinase JAK3 (Homo sapiens, UniProt P52333)", "sequence (P52333 whole entry)": "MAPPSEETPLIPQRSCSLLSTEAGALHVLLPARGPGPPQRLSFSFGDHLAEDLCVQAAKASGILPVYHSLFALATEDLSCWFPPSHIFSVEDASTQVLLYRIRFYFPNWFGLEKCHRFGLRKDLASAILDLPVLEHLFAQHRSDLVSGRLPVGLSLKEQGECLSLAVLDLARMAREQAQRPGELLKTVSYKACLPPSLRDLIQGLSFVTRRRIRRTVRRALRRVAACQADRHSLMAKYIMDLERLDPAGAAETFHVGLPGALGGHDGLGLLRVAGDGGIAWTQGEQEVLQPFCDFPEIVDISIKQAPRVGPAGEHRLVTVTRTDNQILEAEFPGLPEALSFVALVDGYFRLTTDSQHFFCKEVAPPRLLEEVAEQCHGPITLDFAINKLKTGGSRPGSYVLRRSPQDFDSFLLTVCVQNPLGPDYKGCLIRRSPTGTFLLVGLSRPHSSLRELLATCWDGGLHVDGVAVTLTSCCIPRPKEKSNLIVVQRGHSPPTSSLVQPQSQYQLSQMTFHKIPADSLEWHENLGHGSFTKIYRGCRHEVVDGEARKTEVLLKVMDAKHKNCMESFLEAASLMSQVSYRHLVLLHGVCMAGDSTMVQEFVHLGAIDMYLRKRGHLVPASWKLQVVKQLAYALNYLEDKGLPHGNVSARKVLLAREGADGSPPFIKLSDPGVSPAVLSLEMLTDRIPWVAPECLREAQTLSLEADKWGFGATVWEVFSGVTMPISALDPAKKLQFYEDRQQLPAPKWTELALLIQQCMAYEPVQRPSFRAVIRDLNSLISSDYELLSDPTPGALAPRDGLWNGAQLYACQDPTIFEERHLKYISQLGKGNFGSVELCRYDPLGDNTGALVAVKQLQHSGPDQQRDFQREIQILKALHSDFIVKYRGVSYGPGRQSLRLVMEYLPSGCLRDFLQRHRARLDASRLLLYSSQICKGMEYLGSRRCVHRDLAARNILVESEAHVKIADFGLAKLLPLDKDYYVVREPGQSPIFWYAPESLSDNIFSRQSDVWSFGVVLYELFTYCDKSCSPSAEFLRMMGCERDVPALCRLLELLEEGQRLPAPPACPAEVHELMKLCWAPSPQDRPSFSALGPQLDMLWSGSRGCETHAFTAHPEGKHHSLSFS"}, "[39]": {"target": "Calcium/calmodulin-dependent protein kinase type II subunit gamma (Homo sapiens, UniProt Q13555)"}, "[40]": {"target": "Casein kinase II subunit alpha (Homo sapiens, UniProt P68400)"}, "[41]": {"target": "T1, Aurora kinase A (Homo sapiens, UniProt O14965)", "T1 sequence (O14965 whole entry)": "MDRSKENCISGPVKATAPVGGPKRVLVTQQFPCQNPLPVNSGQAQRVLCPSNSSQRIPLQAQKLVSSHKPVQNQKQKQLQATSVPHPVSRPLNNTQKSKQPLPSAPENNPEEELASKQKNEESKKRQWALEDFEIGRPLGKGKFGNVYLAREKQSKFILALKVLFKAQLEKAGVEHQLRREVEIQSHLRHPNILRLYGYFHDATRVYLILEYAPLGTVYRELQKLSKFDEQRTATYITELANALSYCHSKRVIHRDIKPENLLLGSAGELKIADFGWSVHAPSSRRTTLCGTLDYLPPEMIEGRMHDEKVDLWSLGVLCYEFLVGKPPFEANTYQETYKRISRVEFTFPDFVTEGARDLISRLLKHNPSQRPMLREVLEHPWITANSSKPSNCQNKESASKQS"}, "[42]": {"target": "Tyrosine-protein kinase Fyn (Homo sapiens, UniProt P06241)"}},
  "note": "Activity calls are given as the source filed them.",
  "data": [
    {"smiles": "NCCCn1cc(-c2cc(-c3cc4ccccc4s3)c3[nH]ncc3c2)c2nc(N)ncc21", "values": [
      {"measurement": "Ki", "setting": "[1]", "result": "3.16 µM (active)"},
      {"measurement": "Ki", "setting": "[2]", "result": "> 2 µM (inactive)"},
      {"measurement": "Ki", "setting": "[3]", "result": "> 1.58 µM (inactive)"},
      {"measurement": "Ki", "setting": "[4]", "result": "1.26 µM (active)"},
      {"measurement": "Ki", "setting": "[5]", "result": "0.126 µM (active)"},
      {"measurement": "Ki", "setting": "[6]", "result": "0.0794 µM (active)"},
      {"measurement": "Ki", "setting": "[7]", "result": "1.26 µM (active)"},
      {"measurement": "Ki", "setting": "[8]", "result": "0.316 µM (active)"},
      {"measurement": "Ki", "setting": "[9]", "result": "> 1.58 µM (inactive)"},
      {"measurement": "Ki", "setting": "[10]", "result": "1.58 µM (active)"},
      {"measurement": "Ki", "setting": "[11]", "result": "0.00794 µM (active)"},
      {"measurement": "Ki", "setting": "[12]", "result": "0.251 µM (active)"},
      {"measurement": "Ki", "setting": "[13]", "result": "> 2 µM (inactive)"},
      {"measurement": "Ki", "setting": "[14]", "result": "0.0631 µM (active)"},
      {"measurement": "Ki", "setting": "[15]", "result": "> 2 µM (inactive)"},
      {"measurement": "Ki", "setting": "[16]", "result": "> 3.16 µM (inactive)"},
      {"measurement": "Ki", "setting": "[17]", "result": "2.51 µM (active)"},
      {"measurement": "Ki", "setting": "[18]", "result": "1 µM (active)"},
      {"measurement": "Ki", "setting": "[19]", "result": "> 3.16 µM (inactive)"},
      {"measurement": "Ki", "setting": "[20]", "result": "0.2 µM (active)"},
      {"measurement": "Ki", "setting": "[21]", "result": "> 3.16 µM (inactive)"},
      {"measurement": "Ki", "setting": "[22]", "result": "> 3.98 µM (inactive)"},
      {"measurement": "Ki", "setting": "[23]", "result": "1.26 µM (active)"},
      {"measurement": "Ki", "setting": "[24]", "result": "2.51 µM (active)"},
      {"measurement": "Ki", "setting": "[25]", "result": "> 3.16 µM (inactive)"},
      {"measurement": "Ki", "setting": "[26]", "result": "> 3.98 µM (inactive)"},
      {"measurement": "Ki", "setting": "[27]", "result": "0.0316 µM (active)"},
      {"measurement": "Ki", "setting": "[28]", "result": "0.1 µM (active)"},
      {"measurement": "Ki", "setting": "[29]", "result": "0.2 µM (active)"},
      {"measurement": "Ki", "setting": "[30]", "result": "0.2 µM (active)"},
      {"measurement": "Ki", "setting": "[31]", "result": "0.1 µM (active)"},
      {"measurement": "Ki", "setting": "[32]", "result": "> 3.98 µM (inactive)"},
      {"measurement": "Ki", "setting": "[33]", "result": "> 1.58 µM (inactive)"},
      {"measurement": "Ki", "setting": "[34]", "result": "> 2.51 µM (inactive)"},
      {"measurement": "Ki", "setting": "[35]", "result": "1 µM (active)"},
      {"measurement": "Ki", "setting": "[36]", "result": "0.0316 µM (active)"},
      {"measurement": "Ki", "setting": "[37]", "result": "> 2.51 µM (inactive)"},
      {"measurement": "Ki", "setting": "[38]", "result": "> 3.98 µM (inactive)"},
      {"measurement": "Ki", "setting": "[39]", "result": "0.501 µM (active)"},
      {"measurement": "Ki", "setting": "[40]", "result": "0.1 µM (active)"},
      {"measurement": "Ki", "setting": "[41]", "result": "> 1.58 µM (inactive)"},
      {"measurement": "Ki", "setting": "[42]", "result": "> 3.16 µM (inactive)"}
    ]}
  ]
}
